Laboratory results: US20260262643A1, “HERBICIDAL BENZOXAZINES” (FMC CORPORATION, priority 2022, published 2026)

Experiments:
[1] = tested on: wheat; assay: Test A preemergence; format: in vivo, Triticum aestivum
Outline: (§1)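 Loam/sand soil; pre-em directed soil spray at planting, post-em spray at 1–2 leaf (2–10 cm). Compound in non-phytotoxic solvent + surfactant. Greenhouse 10 d; visual injury vs untreated, 0 = no effect, 100 = complete control.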

[2] = tested on: kochia; assay: Test A preemergence; format: in vivo, Bassia scoparia
Outline: as §1

[3] = tested on: blackgrass; assay: Test A preemergence; format: in vivo, Alopecurus myosuroides
Outline: as §1

[4] = tested on: rice; assay: Test B flooded paddy test; format: in vivo, Oryza sativa; conditions: 250 g ai/ha, Flood, 13 days, 0 to 100 scale (0 no effect, 100 complete control)
Outline: (§2)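 Compound is introduced into paddy water covering soil by 3 cm, treating plants that have reached two leaves. Pots are kept flooded at that depth under greenhouse conditions. Assessment at 13 days gives a 0–100 visual control score.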

[5] = tested on: ryegrass, Italian; assay: Test A postemergence; format: in vivo, Lolium multiflorum; conditions: postemergence, 10 days; for Plant response rating, Ryegrass, Italian: 500 g ai/ha, visual injury, 0 to 100 scale (0 no effect, 100 complete control)
Outline: as §1

[6] = tested on: foxtail, giant; assay: Test A preemergence; format: in vivo, Setaria faberi
Outline: as §1

[7] = tested on: pigweed, palmer; assay: Test A preemergence; format: in vivo, Amaranthus palmeri
Outline: as §1

[8] = tested on: corn; assay: Test A postemergence; format: in vivo, Zea mays; conditions: postemergence, 10 days; for Plant response rating, Corn: visual injury, 0 to 100 scale (0 no effect, 100 complete control)
Outline: as §1

[9] = tested on: blackgrass; assay: Test A postemergence; format: in vivo, Alopecurus myosuroides
Outline: as §1

[10] = tested on: barnyardgrass; assay: Test B flooded paddy test; format: in vivo, Echinochloa crus-galli; conditions: 250 g ai/ha, Flood, 13 days, 0 to 100 scale (0 no effect, 100 complete control)
Outline: as §2

[11] = tested on: horseweed; assay: Test A postemergence; format: in vivo, Erigeron canadensis; conditions: postemergence, 10 days; for Plant response rating, Horseweed: visual injury, 0 to 100 scale (0 no effect, 100 complete control)
Outline: as §1

[12] = tested on: kochia; assay: Test A postemergence; format: in vivo, Bassia scoparia; conditions: postemergence, 10 days; for Plant response rating, Kochia: visual injury, 0 to 100 scale (0 no effect, 100 complete control)
Outline: as §1

[13] = tested on: wheat; assay: Test A postemergence; format: in vivo, Triticum aestivum; conditions: postemergence, 10 days; for Plant response rating, Wheat: 500 g ai/ha, visual injury, 0 to 100 scale (0 no effect, 100 complete control)
Outline: as §1

[14] = tested on: corn; assay: Test A preemergence; format: in vivo, Zea mays
Outline: as §1

[15] = tested on: soybean; assay: Test A preemergence; format: in vivo, Glycine max
Outline: as §1

[16] = tested on: ragweed; assay: Test A preemergence; format: in vivo, Ambrosia artemisiifolia
Outline: as §1

[17] = tested on: goosegrass; assay: Test A preemergence; format: in vivo, Eleusine indica
Outline: as §1

[18] = tested on: oat, wild; assay: Test A postemergence; format: in vivo, Avena fatua; conditions: postemergence, 10 days; for Plant response rating, Oat, Wild: 500 g ai/ha, visual injury, 0 to 100 scale (0 no effect, 100 complete control)
Outline: as §1

[19] = tested on: ducksalad; assay: Test B flooded paddy test; format: in vivo, Heteranthera limosa; conditions: 250 g ai/ha, Flood, 13 days, 0 to 100 scale (0 no effect, 100 complete control)
Outline: as §2

[20] = tested on: pigweed, palmer; assay: Test A postemergence; format: in vivo, Amaranthus palmeri; conditions: postemergence, 10 days; for Plant response rating, Pigweed, Palmer: 500 g ai/ha, visual injury, 0 to 100 scale (0 no effect, 100 complete control)
Outline: as §1

[21] = tested on: goosegrass; assay: Test A postemergence; format: in vivo, Eleusine indica; conditions: postemergence, 10 days; for Plant response rating, Goosegrass: visual injury, 0 to 100 scale (0 no effect, 100 complete control)
Outline: as §1

[22] = tested on: ragweed; assay: Test A postemergence; format: in vivo, Ambrosia artemisiifolia; conditions: postemergence, 10 days; for Plant response rating, Ragweed: 500 g ai/ha, visual injury, 0 to 100 scale (0 no effect, 100 complete control)
Outline: as §1

[23] = tested on: sedge, umbrella; assay: Test B flooded paddy test; format: in vivo, Cyperus difformis; conditions: 250 g ai/ha, Flood, 13 days, 0 to 100 scale (0 no effect, 100 complete control)
Outline: as §2

[24] = tested on: foxtail, giant; assay: Test A postemergence; format: in vivo, Setaria faberi; conditions: postemergence, 10 days; for Plant response rating, Foxtail, Giant: visual injury, 0 to 100 scale (0 no effect, 100 complete control)
Outline: as §1

[25] = tested on: soybean; assay: Test A postemergence; format: in vivo, Glycine max; conditions: postemergence, 10 days; for Plant response rating, Soybean: 500 g ai/ha, visual injury, 0 to 100 scale (0 no effect, 100 complete control)
Outline: as §1

[26] = tested on: ryegrass, Italian; assay: Test A preemergence; format: in vivo, Lolium multiflorum
Outline: as §1

[27] = tested on: oat, wild; assay: Test A preemergence; format: in vivo, Avena fatua
Outline: as §1

[28] = 125 g ai/ha, visual injury after 10 days, 0 to 100 scale, 0 is no effect, 100 is complete control
[29] = 500 g ai/ha, 0 to 100 scale (0 no effect, 100 complete control), 10 days
[30] = 125 g ai/ha, 0 to 100 scale, 0 no effect, 100 complete control

## Cc1cccc2c1O[C@@H](C)CN2C(=O)c1cccc(-n2cnc(C3CCCCC3)n2)c1 [Compound 82]
[1]; [28]
  Plant response rating, Wheat: 0
[1]; [29]
  Plant response rating, Wheat: 0
[2]; [28]
  Plant response rating, Kochia: 0
[2]; [29]
  Plant response rating, Kochia: 0
[3]; [28]
  Plant response rating, Blackgrass: 0
[3]; [29]
  Plant response rating, Blackgrass: 0
[4]
  Plant response rating, Rice: 0
[5]; [30]
  Ryegrass, Italian plant response rating: 0
[5]
  Plant response rating, Ryegrass, Italian: 30
[6]; [28]
  Plant response rating, Foxtail, Giant: 0
[6]; [29]
  Plant response rating, Foxtail, Giant: 20
[7]; [28]
  Plant response rating, Pigweed, Palmer: 0
[7]; [29]
  Plant response rating, Pigweed, Palmer: 40
[8]; [30]
  Corn plant response rating: 0
[8]; 500 g ai/ha
  Plant response rating, Corn: 10
[9]; 125 g ai/ha, postemergence, 10 days, 0 to 100 scale, 0 no effect, 100 complete control
  Blackgrass plant response rating: 0
[9]; 500 g ai/ha, postemergence, 10 days, visual injury, 0 to 100 scale (0 no effect, 100 complete control)
  Plant response rating, Blackgrass: 10
[10]
  Plant response rating, Barnyardgrass: 0
[11]; [30]
  Horseweed plant response rating: 0
[11]; 500 g ai/ha
  Plant response rating, Horseweed: 0
[12]; [30]
  Kochia plant response rating: 70
[12]; 500 g ai/ha
  Plant response rating, Kochia: 80
[13]; [30]
  Wheat plant response rating: 10
[13]
  Plant response rating, Wheat: 10
[14]; [28]
  Plant response rating, Corn: 0
[14]; [29]
  Plant response rating, Corn: 10
[15]; [28]
  Plant response rating, Soybean: 0
[15]; [29]
  Plant response rating, Soybean: 0
[16]; [28]
  Plant response rating, Ragweed: 0
[16]; [29]
  Plant response rating, Ragweed: 0
[17]; [28]
  Plant response rating, Goosegrass: 20
[17]; [29]
  Plant response rating, Goosegrass: 90
[18]; [30]
  Oat, Wild plant response rating: 0
[18]
  Plant response rating, Oat, Wild: 0
[19]
  Plant response rating, Ducksalad: 0
[20]; [30]
  Pigweed, Palmer plant response rating: 0
[20]
  Plant response rating, Pigweed, Palmer: 50
[21]; [30]
  Goosegrass plant response rating: 0
[21]; 500 g ai/ha
  Plant response rating, Goosegrass: 20
[22]; [30]
  Ragweed plant response rating: 0
[22]
  Plant response rating, Ragweed: 50
[23]
  Plant response rating, Sedge, Umbrella: 0
[24]; [30]
  Foxtail, Giant plant response rating: 10
[24]; 500 g ai/ha
  Plant response rating, Foxtail, Giant: 10
[25]; [30]
  Soybean plant response rating: 90
[25]
  Plant response rating, Soybean: 90
[26]; [28]
  Plant response rating, Ryegrass, Italian: 60
[26]; [29]
  Plant response rating, Ryegrass, Italian: 100
[27]; [28]
  Plant response rating, Oat, Wild: 10
[27]; [29]
  Plant response rating, Oat, Wild: 20

## CCc1ccc(-n2cncn2)cc1C(=O)N1C[C@H](C)Oc2c(Cl)cccc21 [Compound 79]
[1]; [28]
  Plant response rating, Wheat: 10
[1]; [29]
  Plant response rating, Wheat: 50
[2]; [28]
  Plant response rating, Kochia: 20
[2]; [29]
  Plant response rating, Kochia: 40
[3]; [28]
  Plant response rating, Blackgrass: 50
[3]; [29]
  Plant response rating, Blackgrass: 70
[4]
  Plant response rating, Rice: 0
[5]
  Plant response rating, Ryegrass, Italian: 100
[6]; [28]
  Plant response rating, Foxtail, Giant: 100
[6]; [29]
  Plant response rating, Foxtail, Giant: 100
[7]; [28]
  Plant response rating, Pigweed, Palmer: 40
[7]; [29]
  Plant response rating, Pigweed, Palmer: 100
[8]; 125 g ai/ha
  Plant response rating, Corn: 40
[8]; 500 g ai/ha
  Plant response rating, Corn: 80
[9]; 125 g ai/ha, postemergence, 10 days, visual injury, 0 to 100 scale (0 no effect, 100 complete control)
  Plant response rating, Blackgrass: 80
[9]; 500 g ai/ha, Postemergence, 0 to 100 scale
  Plant response rating, Blackgrass: 80
[10]
  Plant response rating, Barnyardgrass: 0
[11]; 125 g ai/ha
  Plant response rating, Horseweed: 0
[11]; 500 g ai/ha
  Plant response rating, Horseweed: 20
[12]; 125 g ai/ha
  Plant response rating, Kochia: 30
[12]; 500 g ai/ha
  Plant response rating, Kochia: 60
[13]
  Plant response rating, Wheat: 50
[14]; [28]
  Plant response rating, Corn: 20
[14]; [29]
  Plant response rating, Corn: 40
[15]; [28]
  Plant response rating, Soybean: 60
[15]; [29]
  Plant response rating, Soybean: 90
[16]; [28]
  Plant response rating, Ragweed: 0
[16]; [29]
  Plant response rating, Ragweed: 30
[17]; [28]
  Plant response rating, Goosegrass: 100
[17]; [29]
  Plant response rating, Goosegrass: 100
[18]
  Plant response rating, Oat, Wild: 80
[19]
  Plant response rating, Ducksalad: 45
[20]
  Plant response rating, Pigweed, Palmer: 90
[21]; 125 g ai/ha
  Plant response rating, Goosegrass: 20
[21]; 500 g ai/ha
  Plant response rating, Goosegrass: 80
[22]
  Plant response rating, Ragweed: 50
[23]
  Plant response rating, Sedge, Umbrella: 98
[24]; 125 g ai/ha
  Plant response rating, Foxtail, Giant: 90
[24]; 500 g ai/ha
  Plant response rating, Foxtail, Giant: 90
[25]
  Plant response rating, Soybean: 100
[26]; [28]
  Plant response rating, Ryegrass, Italian: 60
[26]; [29]
  Plant response rating, Ryegrass, Italian: 100
[27]; [28]
  Plant response rating, Oat, Wild: 90
[27]; [29]
  Plant response rating, Oat, Wild: 80
